Laboratory results as given in article PMC11571207, “Stereorandomized Oncocins with Preserved Ribosome Binding and Antibacterial Activity” (Journal of Medicinal Chemistry, 2024).
Converted amounts (≈) assume the structure as drawn. Like-named read-outs stand apart in the source and are kept apart here. Non-standard residues stand in square brackets, D forms with d. Residues, ends and D or L forms follow the SMILES beside them.

Columns and labels:
[1] = system: E. coli BW25113 WT; details: Table S1, 16-20 h at 37 °C; for MIC E. coli BW25113 WT, 12.5% MH: 12.5% Müller-Hinton medium pH 7.4; for MIC E. coli BW25113 WT, Full MH: full Müller-Hinton medium pH 7.4
Experimental: (§1) Minimum inhibitory concentration assay
(§2) Antimicrobial activity was assayed against P. aeruginosa PAO1, K. pneumoniae NCTC418, E. coli W3110, A. baumannii ATCC 19606, methicillin-resistant S. aureus COL (MRSA), and for selected peptides on P. aeruginosa PA14 and the polymyxin-B-resistant derivative PA14 2P4, as well as the clinical isolates ZEM-1A and ZEM9A, K. pneumoniae OXA-48, S. aureus Newman, Enterobacter cloacae and Burkholderia cenocepacia. The minimal inhibitory concentration (MIC) was determined by using broth microdilution method. A colo ny of bacteria was picked and grown in Luria-Bertani (LB) medium overnight at 37°C. For E. coli BW25113 sbmA::kan the medium was supplemented with 25 mg/L of kanamycin. The next day, the culture was then regrown in LB medium to log phase (OD600 = 0.6 to 0.8), which lasted approximately 4 h, and diluted to an OD600 of 0.022 in the desired medium. Stock solutions of 1 mg/mL of the samples were prepared in sterilized milliQ water and diluted to the beginning concentration of 64 μg/mL in 300 μL Mueller Hinton (MH)-medium. The diluted samples were added to first well of 96-well microtiter plate (TPP, untreated, Faust Laborbedarf, AG, Schaffhausen) and diluted serially by ½. Finally, 4 μL of the bacterial suspension was inoculated into the sample solutions (150 μL/well) with a final inoculation of about 5∙10^5 CFU/mL. The plates were then incubated at 37°C for 15-18h. For each assay, sterility (broth only) and growth control (broth with bacterial inoculum, without antibiotics) were checked with two columns in the plate. The next day, 15 μL of 3-(4,5-dimethylthiazol-2-yl)-2,5-diphenyltetrazolium bromide (MTT) was added to each well of the plate, such a way that MIC was defined as the lowest concentration of the peptide that inhibited visible growth of the tested […]
(§3) Table S1. Activity of stereorandomized and diastereomeric oncocins against E. coli BW25113 WT and BW25113 sbmA::kan mutant in full and 12.5% MH, at pH 7.4. […]
(§4) a) Minimum inhibitory concentration (MIC, μg/mL) was determined on E. coli BW25113 WT and […]

[2] = system: E. coli BW25113 sbmA::kan; details: Table S1, sbmA::kan mutant, 16-20 h at 37 °C; for MIC E. coli BW25113 SbmA-, 12.5% MH: 12.5% Müller-Hinton medium pH 7.4; for MIC E. coli BW25113 SbmA-, Full MH: full Müller-Hinton medium pH 7.4
Experimental: as §1, §2, §3, §4

[3] = system: P. aeruginosa ZEM9A; experiment: microbe, parasite or virus in culture; details: for MIC P. aeruginosa ZEM9A, 12.5% MHB / MIC P. aeruginosa ZEM9A, full MHB: clinical isolate, 16–20 h at 37 °C; for MIC P. aeruginosa ZEM9A, 12.5% MHB: 12.5% MHB pH 7.4; for MIC P. aeruginosa ZEM9A, full MHB: full MHB pH 7.4; for MIC P. aeruginosa ZEM9A: supplement CSV
Experimental: as §1
(§5) Antimicrobial activity was assayed against P. aeruginosa PAO1, K. pneumoniae NCTC418, E. coli W3110, A. baumannii ATCC 19606, methicillin-resistant S. aureus COL (MRSA), and for selected peptides on P. aeruginosa PA14 and the polymyxin-B-resistant derivative PA14 2P4, as well as the clinical isolates ZEM-1A and ZEM9A, K. pneumoniae OXA-48, S. aureus Newman, Enterobacter cloacae and Burkholderia cenocepacia. The minimal inhibitory concentration (MIC) was determined by using broth microdilution method. A colo ny of bacteria was picked and grown in Luria-Bertani (LB) medium overnight at 37°C. For E. coli BW25113 sbmA::kan the medium was supplemented with 25 mg/L of kanamycin. The next day, the culture was then regrown in LB medium to log phase (OD600 = 0.6 to 0.8), which lasted approximately 4 h, and diluted to an OD600 of 0.022 in the desired medium. Stock solutions of 1 mg/mL of the samples were prepared in sterilized milliQ water and diluted to the beginning concentration of 64 μg/mL in 300 μL Mueller Hinton (MH)-medium. The diluted samples were added to first well of 96-well microtiter plate (TPP, untreated, Faust Laborbedarf, AG, Schaffhausen) and diluted serially by ½. Finally, 4 μL of the bacterial suspension was inoculated into the sample solutions (150 μL/well) with a final inoculation of about 5∙10^5 CFU/mL. The plates were then incubated at 37°C for 15-18h. For each assay, sterility (broth only) and growth control (broth with bacterial inoculum, without antibiotics) were checked with two columns in the plate. The next day, 15 μL of 3-(4,5-dimethylthiazol-2-yl)-2,5-diphenyltetrazolium bromide (MTT) was added to each well of the plate, such a way that MIC was defined as the lowest concentration of the peptide that inhibited visible growth of the tested

[4] = system: P. aeruginosa PA14 2P4 (pmrB); experiment: microbe, parasite or virus in culture; details: for MIC P. aeruginosa PA14 2P4 (pmrB), 12.5% MHB / MIC P. aeruginosa PA14 2P4 (pmrB), full MHB: polymyxin B resistant strain, 16–20 h at 37 °C; for MIC P. aeruginosa PA14 2P4 (pmrB), 12.5% MHB: 12.5% MHB pH 7.4; for MIC P. aeruginosa PA14 2P4 (pmrB), full MHB: full MHB pH 7.4; for MIC P. aeruginosa PA14 2P4: supplement CSV
Experimental: as §1, §5

[5] = system: P. aeruginosa PA14; experiment: microbe, parasite or virus in culture; details: for MIC P. aeruginosa PA14, 12.5% MHB: 12.5% MHB pH 7.4; for MIC P. aeruginosa PA14, 12.5% MHB / MIC P. aeruginosa PA14, full MHB: 16–20 h at 37 °C, two different duplicate MIC determinations; for MIC P. aeruginosa PA14, full MHB: full MHB pH 7.4; for MIC P. aeruginosa PA14: supplement CSV
Experimental: as §1, §5

[6] = system: K. pneumoniae OXA-48; experiment: microbe, parasite or virus in culture; details: for MIC K. pneumoniae OXA-48, 12.5% MHB / MIC K. pneumoniae OXA-48, full MHB: carbapenem-resistant, 16–20 h at 37 °C; for MIC K. pneumoniae OXA-48, 12.5% MHB: 12.5% MHB pH 7.4; for MIC K. pneumoniae OXA-48, full MHB: full MHB pH 7.4; for MIC K. pneumoniae OXA-48: supplement CSV
Experimental: as §1, §5

[7] = system: E. cloacae; experiment: microbe, parasite or virus in culture; details: for MIC E. cloacae, 12.5% MHB: 12.5% MHB pH 7.4; for MIC E. cloacae, 12.5% MHB / MIC E. cloacae, full MHB: 16–20 h at 37 °C; for MIC E. cloacae, full MHB: full MHB pH 7.4; for MIC E. cloacae: supplement CSV
Experimental: as §1, §5

[8] = system: P. aeruginosa ZEM-1A; experiment: microbe, parasite or virus in culture; details: for MIC P. aeruginosa ZEM-1A, 12.5% MHB / MIC P. aeruginosa ZEM-1A, full MHB: clinical isolate, 16–20 h at 37 °C, cells marked c: single measurement (in duplicates); for MIC P. aeruginosa ZEM-1A, 12.5% MHB: 12.5% MHB pH 7.4; for MIC P. aeruginosa ZEM-1A, full MHB: full MHB pH 7.4; for MIC P. aeruginosa ZEM-1A: supplement CSV
Experimental: as §1, §5

[9] = system: P. aeruginosa PA14 4.18 (pmrB); details: for MIC P. aeruginosa PA14 4.18 (pmrB), 12.5% MHB / MIC P. aeruginosa PA14 4.18 (pmrB), full MHB: polymyxin B resistant strain, 16–20 h at 37 °C; for MIC P. aeruginosa PA14 4.18 (pmrB), 12.5% MHB: 12.5% MHB pH 7.4; for MIC P. aeruginosa PA14 4.18 (pmrB), full MHB: full MHB pH 7.4; for MIC P. aeruginosa PA14 4.18: supplement CSV

Compound	MIC E. coli BW25113 WT, 12.5% MH [1] [µg/mL]	MIC E. coli BW25113 WT, Full MH [1] [µg/mL]	MIC E. coli BW25113 SbmA-, 12.5% MH [2] [µg/mL]	MIC E. coli BW25113 SbmA-, Full MH [2] [µg/mL]	MIC P. aeruginosa ZEM9A, 12.5% MHB [3]	MIC P. aeruginosa ZEM9A, full MHB [3]	MIC P. aeruginosa ZEM9A ([3]; 12.5% MH pH 7.4) [µg/mL]	MIC P. aeruginosa ZEM9A ([3]; full MH pH 7.4) [µg/mL]	MIC P. aeruginosa PA14 2P4 (pmrB), 12.5% MHB [4] [µg/mL]	MIC P. aeruginosa PA14 2P4 (pmrB), full MHB [4] [µg/mL]	MIC P. aeruginosa PA14 2P4 ([4]; 12.5% MH pH 7.4) [µg/mL]	MIC P. aeruginosa PA14 2P4 ([4]; full MH pH 7.4) [µg/mL]	MIC P. aeruginosa PA14, 12.5% MHB [5]	MIC P. aeruginosa PA14, full MHB [5]	MIC P. aeruginosa PA14 ([5]; 12.5% MH pH 7.4) [µg/mL]	MIC P. aeruginosa PA14 ([5]; full MH pH 7.4) [µg/mL]	MIC K. pneumoniae OXA-48, 12.5% MHB [6]	MIC K. pneumoniae OXA-48, full MHB [6]	MIC K. pneumoniae OXA-48 ([6]; 12.5% MH pH 7.4) [µg/mL]	MIC K. pneumoniae OXA-48 ([6]; full MH pH 7.4) [µg/mL]	also measured
CC[C@@H](C)[C@@H](NC(=O)[C@@H](CCCNC(=N)N)NC(=O)[C@@H](CCCNC(=N)N)NC(=O)[C@H]1CCCN1C(=O)[C@H]1CCCN1C(=O)[C@@H](CCCNC(=N)N)NC(=O)[C@H]1CCCN1C(=O)[C@@H](CCCNC(=N)N)NC(=O)[C@H]1CCCN1C(=O)[C@@H](CC(C)C)NC(=O)[C@@H](Cc1ccc(O)cc1)NC(=O)[C@H]1CCCN1C(=O)[C@H]1CCCN1C(=O)[C@@H](CCCCN)NC(=O)[C@@H](CC(=O)O)NC(=O)[C@H](N)C(C)C)C(=O)N[C@H](Cc1ccc(O)cc1)C(=O)N[C@H](CC(N)=O)C(=O)N[C@H](CCCNC(=N)N)C(N)=O [D-Onc] (H-[dV][dD][dK][dP][dP][dY][dL][dP][dR][dP][dR][dP][dP][dR][dR][dI][dY][dN][dR]-NH2)	16 (≈ 6.69 µM)	> 64	16 (≈ 6.69 µM)	> 64	32 µg/mL (≈ 13.4 µM)	> 64 µg/mL	32 (≈ 13.4 µM)	>64	8 (≈ 3.35 µM)	> 64	8 (≈ 3.35 µM)	>64	32 µg/mL (≈ 13.4 µM)	> 64 µg/mL	32 (≈ 13.4 µM)	>64	>64/64 μg/mL	>64/64 μg/mL	64 (≈ 26.8 µM)	>64	MIC E. cloacae, 12.5% MHB [7]: 16 µg/mL (≈ 6.69 µM); MIC E. cloacae, full MHB [7]: > 64 µg/mL; MIC E. cloacae ([7]; 12.5% MH pH 7.4): 16 µg/mL (≈ 6.69 µM); MIC E. cloacae ([7]; full MH pH 7.4): >64 µg/mL; MIC P. aeruginosa ZEM-1A, 12.5% MHB [8]: >64/>64 ^c μg/mL; MIC P. aeruginosa ZEM-1A, full MHB [8]: >64/>64 ^c μg/mL; MIC P. aeruginosa ZEM-1A ([8]; 12.5% MH pH 7.4): >64 µg/mL; MIC P. aeruginosa ZEM-1A ([8]; full MH pH 7.4): >64 µg/mL; MIC P. aeruginosa PA14 4.18 (pmrB), 12.5% MHB [9]: 16 µg/mL (≈ 6.69 µM); MIC P. aeruginosa PA14 4.18 (pmrB), full MHB [9]: > 64 µg/mL; MIC P. aeruginosa PA14 4.18 ([9]; 12.5% MH pH 7.4): 16 µg/mL (≈ 6.69 µM); MIC P. aeruginosa PA14 4.18 ([9]; full MH pH 7.4): >64 µg/mL
CC[C@H](C)[C@H](NC(=O)[C@H](CCCNC(=N)N)NC(=O)[C@H](CCCNC(=N)N)NC(=O)[C@@H]1CCCN1C(=O)[C@@H]1CCCN1C(=O)[C@H](CCCNC(=N)N)NC(=O)[C@@H]1CCCN1C(=O)[C@H](CCCNC(=N)N)NC(=O)[C@@H]1CCCN1C(=O)[C@@H](CC(C)C)NC(=O)[C@H](Cc1ccc(O)cc1)NC(=O)[C@@H]1CCCN1C(=O)[C@@H]1CCCN1C(=O)[C@H](CCCCN)NC(=O)[C@H](CC(=O)O)NC(=O)[C@@H](N)C(C)C)C(=O)N[C@@H](Cc1ccc(O)cc1)C(=O)N[C@@H](CC(N)=O)C(=O)N[C@@H](CCCNC(=N)N)C(N)=O [DL7-Onc] (H-VDKPPY[dL]PRPRPPRRIYNR-NH2)	32 (≈ 13.4 µM)	> 64	32 (≈ 13.4 µM)	> 64	>64/>64 μg/mL	>64/>64 μg/mL	>64	>64	32 (≈ 13.4 µM)	> 64	32 (≈ 13.4 µM)	>64	>32/>32 μg/mL	>32/>32 μg/mL	>32	>32	>64/>64 μg/mL	>64/>64 μg/mL	>64	>64	MIC E. cloacae, 12.5% MHB [7]: 32 µg/mL (≈ 13.4 µM); MIC E. cloacae, full MHB [7]: > 64 µg/mL; MIC E. cloacae ([7]; 12.5% MH pH 7.4): 32 µg/mL (≈ 13.4 µM); MIC E. cloacae ([7]; full MH pH 7.4): >64 µg/mL; MIC P. aeruginosa ZEM-1A, 12.5% MHB [8]: >64/>64 ^c μg/mL; MIC P. aeruginosa ZEM-1A, full MHB [8]: >64/>64 ^c μg/mL; MIC P. aeruginosa ZEM-1A ([8]; 12.5% MH pH 7.4): >64 µg/mL; MIC P. aeruginosa ZEM-1A ([8]; full MH pH 7.4): >64 µg/mL; MIC P. aeruginosa PA14 4.18 (pmrB), 12.5% MHB [9]: >32/>32 μg/mL; MIC P. aeruginosa PA14 4.18 (pmrB), full MHB [9]: >32/>32 μg/mL; MIC P. aeruginosa PA14 4.18 ([9]; 12.5% MH pH 7.4): >32 µg/mL; MIC P. aeruginosa PA14 4.18 ([9]; full MH pH 7.4): >32 µg/mL
